This is an account of results in patent publication US10519506B2, “Identification of metastasis-specific miRNA and hypomethylation signatures in human colorectal cancer” (Baylor Research Institute, priority 2011, dated 2019).

What all share (type): cell-based, human
In assay [1] the test system is CRC cell lines. In words: miRNA expression (TaqMan miRNA assays) in CRC cell lines treated with RNA pol II inhibitor. The conditions noted are these: 50 μg/ml α-amanitin for 7 hours (FIG. 9). On the procedure: (§1) Additional materials and methods. CRC Cell line: CACO2, HCT116, RKO, SW48, SW480, and SW620. Tissue specimens: A total of 59 formalin-fixed, paraffin-embedded (FFPE) primary CRC tissues and corresponding liver metastasis tissues were analyzed. 5-Aza-2′-deoxycytidine (5-aza-dC) treatment: CRC cell lines were treated with 2.5 μM 5-aza-dC for 72 hours. α-amanitin treatment: CRC cell lines were treated with 50 μg/ml α-amanitin, a RNA pol II inhibitor, for 7 hours. Methylation analysis: Methylation levels were analyzed by bisulfite pyrosequencing for quantitative methylation analysis using PSQ HS 96A pyrosequencing system (Qiagen) on bisulfite modified genomic DNA template. microRNAs expression analysis: Expression of miR-373 and miR-520c was analyzed using TaqMan miRNA assays.

Assay [2] deals with CRC cell lines. In words: Alu methylation by quantitative bisulfite pyrosequencing in CRC cell lines treated with demethylating agent. The conditions noted are these: for methylation status of global Alu repetitive element: 2.5 μM 5-aza-dC for 72 hours, pyrosequencing (FIG. 3). The protocol: (§2) Cell lines and 5-aza-2-deoxy-cytidine treatment. Seven CRC cell lines, HCT116, RKO, SW48, Caco-2, HT29, SW480, and SW620 were obtained from the American Type Culture Collection (ATCC, Rockville, Md.). Cell lines were treated with 2.5 μM 5-Aza-2′-deoxycytidine (5-aza-dC; Sigma-Aldrich) for 72 hours, and fresh medium containing 5-aza-dC was replaced every 24 hours.
DNA methylation analysis. Methylation levels of repetitive sequences (global Alu and local Alu) were analyzed by quantitative bisulfite pyrosequencing using the PSQ HS 96A pyrosequencing system (Qiagen) following bisulfite modification of genomic DNA using EZ DNA methylation Gold Kits (Zymo Research), as described previously.
as §1

In assay [3] the test system is CRC cell lines. The assay can be described thus: miRNA expression (TaqMan miRNA assays) in CRC cell lines treated with demethylating agent. The protocol:
as §2
miRNA expression analysis. Expression of fourteen metastasis-related miRNAs (let-7i, miR-10b, miR-30b, miR-34a, miR-141, miR-200b, miR-200c, miR-203, miR-221, miR-320a, miR-373, miR-429, miR-518d, and miR-520c) was analyzed using TaqMan miRNA assays (Applied Biosystems Inc., Foster City, Calif.). Expression of RNU6B (Applied Biosystems Inc., Foster City, Calif.) and miR-16 were used as endogenous controls for cell lines and FFPE tissues, respectively.
Additional materials and methods. CRC Cell line: CACO2, HCT116, RKO, SW48, SW480, and SW620. Tissue specimens: A total of 59 formalin-fixed, paraffin-embedded (FFPE) primary CRC tissues and corresponding liver metastasis tissues were analyzed. […] Methylation analysis: Methylation levels were analyzed by bisulfite pyrosequencing for quantitative methylation analysis using PSQ HS 96A pyrosequencing system (Qiagen) on bisulfite modified genomic DNA template. microRNAs expression analysis: Expression of miR-373 and miR-520c was analyzed using TaqMan miRNA assays.
On the technique in general: Real-time PCR tracks product formation cycle by cycle.

As for `CC[C@H](C)[C@@H]1NC(=O)CNC(=O)[C@@H]2Cc3c([nH]c4cc(O)ccc34)[S+]([O-])C[C@@H](NC(=O)CNC1=O)C(=O)N[C@@H](CC(N)=O)C(=O)N1C[C@H](O)C[C@H]1C(=O)N[C@@H]([C@@H](C)[C@@H](O)CO)C(=O)N2` (stereo in doubt) [RNA pol II inhibitor, α-amanitin], in the assay with CRC cell lines [1], the “expression of miR-520c” value was “inhibited the expression” and the “miR-373 transcription / activation” value is on record as “did not suppress activation”. Besides, the “miR-373 transcription / activation” value in the assay on CRC cell lines [1] (listed as RNA polymerase II inhibitor) is reported as “did not suppress”.

Turning to `Nc1ncn([C@H]2C[C@H](O)[C@@H](CO)O2)c(=O)n1` [5-aza, 5-Aza-2′-deoxycytidine], the “methylation status of global Alu repetitive element” value was “markedly demethylated” in the assay on CRC cell lines [2] and “Global hypomethylation of Alu sequences was observed” in the assay with CRC cell lines [2] (listed as 5-azacytidine). Also, the “methylation of Alu element in miR-373 promoter region” value in the assay on CRC cell lines [2] (5Aza treatment) was “demethylated”. Moreover, in the assay with CRC cell lines [3] (demethylating agent treatment), the “expression of miR-373” value is “induced”. The “expression of miR-520c” value in the assay with CRC cell lines [3] (demethylating agent treatment (FIG. 6B)) is given as “induced”.
